Measured values reported in patent US11198695B2, “Fused ring derivative having MGAT-2 inhibitory activity” (Shionogi & Co., Ltd., priority 2017, dated 2021).

Target: recombinant human MGAT2 (Homo sapiens (Human), UniProt Q3SYC2)
Assay: Measurement of human MGAT2 inhibitory activity
Assay type: biochemical
Details: read-out: IC50 (concentration exhibiting 50% enzyme inhibition), Table 52
Procedure, shortened: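 Membrane fraction of Sf9 cells expressing N-terminally Flag-tagged full-length human MGAT2, incubated 1 h at room temperature in 100 mmol/L phosphate pH 7.4 with 2 mmol/L DTT. The substrate solution held 30 μmol/L 2-oleoylglycerol and 10 μmol/L oleoyl-CoA. Diolein product was quantified by RapidFire ESI Q-TOF MS against diolein-d5 internal standard; % inhibition was set relative to with/without-enzyme controls.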

Sequence of recombinant human MGAT2 (Q3SYC2 whole entry): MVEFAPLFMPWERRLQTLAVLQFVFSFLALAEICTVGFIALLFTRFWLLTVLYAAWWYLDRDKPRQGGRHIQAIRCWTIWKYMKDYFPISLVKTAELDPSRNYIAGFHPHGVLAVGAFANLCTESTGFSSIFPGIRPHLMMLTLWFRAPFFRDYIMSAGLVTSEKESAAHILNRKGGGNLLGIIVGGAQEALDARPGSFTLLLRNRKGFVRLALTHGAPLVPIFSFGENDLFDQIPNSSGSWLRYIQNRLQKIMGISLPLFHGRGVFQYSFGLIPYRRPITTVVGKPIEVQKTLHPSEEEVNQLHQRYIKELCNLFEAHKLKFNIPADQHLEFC

| SMILES | IC50 [nM] |
| --- | --- |
| CS(=O)(=O)CC(=O)Nc1c2c(nn1-c1ccc(C#N)cc1)C[C@]1(CCc3cc(F)cc(F)c31)NC2=O [Compound I-164] | 86 |
| Cn1cc(C(=O)Nc2c3c(nn2CCC2CC2)C[C@]2(CCc4cc(OCC(F)(F)F)ccc42)NC3=O)nn1 [Compound I-172] | 480 |
| CS(=O)(=O)CC(=O)Nc1c2c(nn1Cc1ccc(C(F)(F)F)o1)C[C@]1(CCc3cc(OCCCC(F)(F)F)ccc31)NC2=O [Compound I-173] | 78 |
| CS(=O)(=O)CC(=O)Nc1c2c(nn1-c1ccccn1)C[C@]1(CCc3cc(F)cc(F)c31)NC2=O [Compound I-175] | 86 |
| Cc1cc(C(=O)Nc2c3c(nn2CCC2CC2)C[C@]2(CCc4cc(OCC(F)(F)F)ccc42)NC3=O)no1 [Compound I-176] | 180 |
| O=C1N[C@@]2(CCc3cc(OCC(F)(F)F)ccc32)Cc2nn(CCC3CC3)c(NC(=O)c3onc4ccccc34)c21 [Compound I-177] | 610 |
| Cc1ccccc1-n1nc2c(c1NC(=O)CS(C)(=O)=O)C(=O)N[C@@]1(CCc3cc(OCCCC(F)(F)F)ccc31)C2 [Compound I-180] | 150 |
| O=C1N[C@@]2(CCc3cc(OCC(F)(F)F)ccc32)Cc2nn(CCC3CC3)c(NC(=O)C3CC(F)(F)C3)c21 [Compound I-184] | 68 |
| O=C1N[C@@]2(CCc3cc(OCC(F)(F)F)ccc32)Cc2nn(CCC3CC3)c(C(=O)O)c21 [Compound I-187] | 190 |
| CCS(=O)(=O)NCc1c2c(nn1CCC1CC1)C[C@]1(CCc3cc(OCC(F)(F)F)ccc31)NC2=O [Compound I-194] | 460 |
| O=C1N[C@@]2(CCc3cc(OCC(F)(F)F)ccc32)Cc2nn(CCC3CC3)c(CNS(=O)(=O)C3CC3)c21 [Compound I-195] | 450 |
| O=C1N[C@@]2(CCc3cc(OCC(F)(F)F)ccc32)Cc2nn(CCC3CC3)c(C(=O)Nc3ccccc3)c21 [Compound I-196] | 1000 |
| CS(=O)(=O)CC(=O)Nc1c2c(nn1CCC1CC1)C[C@]1(CCc3cc(NC(=O)CC(F)(F)F)ccc31)NC2=O [Compound I-198] | 67 |
| O=C(Nc1c2c(nn1CCC1CC1)C[C@]1(CCc3cc(OCC(F)(F)F)ccc31)NC2=O)c1ccncn1 [Compound I-199] | 400 |
| CS(=O)(=O)CC(=O)Nc1c2c(nn1CC1CCOCC1)C[C@]1(CCc3cc(OCCCC(F)(F)F)ccc31)NC2=O [Compound I-205] | 270 |
| CS(=O)(=O)CC(=O)Nc1nn(CCCC(F)(F)F)c2c1C(=O)N[C@@]1(CCc3cc(OCCCC(F)(F)F)ccc31)C2 [Compound I-208] | 250 |
| CS(=O)(=O)CC(=O)Nc1nn(Cc2nc(C(F)(F)F)cs2)c2c1C(=O)N[C@@]1(CCc3cc(OCCCC(F)(F)F)ccc31)C2 [Compound I-210] | 550 |
| CCCC(C)n1nc2c(c1NC(=O)CS(C)(=O)=O)C(=O)N[C@@]1(CCc3cc(OCC(F)(F)F)ccc31)C2 (some centres unmarked) [Compound I-214] | 460 |
| O=C(Nc1c2c(nn1CCC1CC1)C[C@]1(CCc3cc(OCC(F)(F)F)ccc31)NC2=O)c1ncccn1 [Compound I-215] | 420 |
| O=C(Nc1c2c(nn1CCC1CC1)C[C@]1(CCc3cc(OCC(F)(F)F)ccc31)NC2=O)c1cnccn1 [Compound I-217] | 89.5 |
| O=C(Nc1c2c(nn1CCC1CC1)C[C@]1(CCc3cc(OCC(F)(F)F)ccc31)NC2=O)c1csnn1 [Compound I-219] | 110 |
| O=C(Nc1c2c(nn1CCC1CC1)C[C@]1(CCc3cc(OCC(F)(F)F)ccc31)NC2=O)c1cscn1 [Compound I-222] | 88 |
| Cn1nccc1C(=O)Nc1c2c(nn1CCC1CC1)C[C@]1(CCc3cc(OCC(F)(F)F)ccc31)NC2=O [Compound I-223] | 140 |
| Cc1oncc1C(=O)Nc1c2c(nn1CCC1CC1)C[C@]1(CCc3cc(OCC(F)(F)F)ccc31)NC2=O [Compound I-224] | 310 |
| Cc1cnoc1C(=O)Nc1c2c(nn1CCC1CC1)C[C@]1(CCc3cc(OCC(F)(F)F)ccc31)NC2=O [Compound I-226] | 90 |
| Cc1cc(C(=O)Nc2c3c(nn2CCC2CC2)C[C@]2(CCc4cc(OCC(F)(F)F)ccc42)NC3=O)ns1 [Compound I-227] | 370 |
| Cc1cc(C(=O)Nc2c3c(nn2CCC2CC2)C[C@]2(CCc4cc(OCC(F)(F)F)ccc42)NC3=O)n(C)n1 [Compound I-229] | 620 |
| Cc1ncc(C(=O)Nc2c3c(nn2CCC2CC2)C[C@]2(CCc4cc(OCC(F)(F)F)ccc42)NC3=O)s1 [Compound I-230] | 210 |

Now those with a lower IC50, led by results:

| IC50 [nM] | SMILES |
| --- | --- |
| 5.2 | CS(=O)(=O)CC(=O)Nc1c2c(nn1CCC1CC1)C[C@@]1(CCc3cc(N4CC(F)(F)C4)ccc31)NC2=O [Compound I-165] |
| 7.1 | CS(=O)(=O)CC(=O)Nc1c2c(nn1CCC1CC1)C[C@@]1(CCc3cc(N4CC(C(F)(F)F)C4)ccc31)NC2=O [Compound I-166] |
| 5.9 | CS(=O)(=O)CC(=O)Nc1c2c(nn1-c1ccc(C#N)cn1)C[C@]1(CCc3cc(N4CC(C(F)(F)F)C4)ccc31)NC2=O [Compound I-168] |
| 9.8 | CS(=O)(=O)CC(=O)Nc1c2c(nn1-c1ccccn1)C[C@@]1(CCc3cc(OCC(F)(F)F)cc(F)c31)NC2=O [Compound I-169] |
| 12 | CS(=O)(=O)CC(=O)Nc1c2c(nn1CCC1CC1)C[C@](c1ccc(OCC(F)(F)F)cc1F)(C(F)(F)F)NC2=O [Compound I-171] |
| 63.7 | COc1ccc(C(=O)Nc2c3c(nn2CCC2CC2)C[C@]2(CCc4cc(OCCCC(F)(F)F)ccc42)NC3=O)cc1 [Compound I-174] |
| 39 | CS(=O)(=O)CC(=O)Nc1c2c(nn1CCC1CC1)C[C@]1(CCc3cc(F)cc(F)c31)NC2=O [Compound I-178] |
| 6.1 | Cc1cccc(-n2nc3c(c2NC(=O)CS(C)(=O)=O)C(=O)N[C@@]2(CCc4cc(OCCCC(F)(F)F)ccc42)C3)c1 [Compound I-179] |
| 15 | O=C1N[C@@]2(CCc3cc(OCC(F)(F)F)ccc32)Cc2nn(CCC3CC3)c(C(=O)NS(=O)(=O)C3CC3)c21 [Compound I-181] |
| 2.5 | CS(=O)(=O)CC(=O)Nc1c2c(nn1-c1ccc(F)cc1)C[C@]1(CCOc3cc(OCC(F)(F)F)ccc31)NC2=O [Compound I-182] |
| 18 | O=C1N[C@@]2(CCc3cc(OCC(F)(F)F)ccc32)Cc2nn(CCC3CC3)c(NC(=O)C3CS(=O)(=O)C3)c21 [Compound I-183] |
| 6.3 | CS(=O)(=O)CC(=O)Nc1c2c(nn1-c1ccccn1)C[C@]1(CCc3cc(OCC(F)(F)F)cc(F)c31)NC2=O [Compound I-185] |
| 7.6 | O=C1N[C@@]2(CCc3cc(OCC(F)(F)F)ccc32)Cc2nn(CCC3CC3)c(-c3noc(=O)[nH]3)c21 [Compound I-186] |
| 52 | CS(=O)(=O)CC(=O)Nc1c2c(nn1-c1ccncn1)C[C@]1(CCc3cc(OCC(F)(F)F)ccc31)NC2=O [Compound I-188] |
| 1.2 | CS(=O)(=O)CC(=O)Nc1c2c(nn1-c1ccc(C(F)(F)F)cn1)C[C@]1(CCc3cc(OCC(F)(F)F)ccc31)NC2=O [Compound I-189] |
| 28 | CS(=O)(=O)CC(=O)Nc1c2c(nn1CCc1ccccc1)C[C@]1(CCc3cc(OCC(F)(F)F)ccc31)NC2=O [Compound I-191] |
| 6.5 | CS(=O)(=O)CC(=O)Nc1c2c(nn1Cc1nc(C(F)(F)F)cs1)C[C@]1(CCc3cc(OCC(F)(F)F)ccc31)NC2=O [Compound I-192] |

| IC50 [nM] | SMILES |
| --- | --- |
| 6.1 | CS(=O)(=O)CC(=O)Nc1c2c(nn1CCCC(F)(F)F)C[C@]1(CCc3cc(OCC(F)(F)F)ccc31)NC2=O [Compound I-193] |
| 24 | CC(C)(O)c1ccc(-n2nc3c(c2NC(=O)CS(C)(=O)=O)C(=O)N[C@@]2(CCc4cc(OCCCC(F)(F)F)ccc42)C3)cc1 [Compound I-197] |
| 6.2 | CS(=O)(=O)CC(=O)Nc1c2c(nn1CCC1CC1)C[C@]1(CCc3cc(N4CC(F)(F)C4)cc(F)c31)NC2=O [Compound I-202] |
| 2.6 | CS(=O)(=O)CC(=O)Nc1c2c(nn1-c1ccc(F)cn1)C[C@]1(CCc3cc(OCC(F)(F)F)ccc31)NC2=O [Compound I-203] |
| 11.3 | CS(=O)(=O)CC(=O)Nc1c2c(nn1CCC1CC1)C[C@]1(CCc3cc(N4CC(F)(F)C4)ccc31)NC2=O [Compound I-204] |
| 2.4 | CS(=O)(=O)CC(=O)Nc1c2c(nn1CCCC(F)(F)F)C[C@]1(CCc3cc(OCCCC(F)(F)F)ccc31)NC2=O [Compound I-206] |
| 17.5 | CS(=O)(=O)CC(=O)Nc1c2c(nn1CCCC#N)C[C@]1(CCc3cc(OCCCC(F)(F)F)ccc31)NC2=O [Compound I-207] |
| 3.2 | CS(=O)(=O)CC(=O)Nc1c2c(nn1Cc1nc(C(F)(F)F)cs1)C[C@]1(CCc3cc(OCCCC(F)(F)F)ccc31)NC2=O [Compound I-209] |
| 2.1 | CS(=O)(=O)CC(=O)Nc1c2c(nn1-c1ccc(F)cn1)C[C@@]1(CCc3cc(OCC(F)(F)F)ccc31)NC2=O [Compound I-211] |
| 43 | CS(=O)(=O)CC(=O)NCc1c2c(nn1CCC1CC1)C[C@]1(CCc3cc(OCC(F)(F)F)ccc31)NC2=O [Compound I-213] |
| 35 | O=C(Nc1c2c(nn1CCC1CC1)C[C@]1(CCc3cc(OCC(F)(F)F)ccc31)NC2=O)c1cncnc1 [Compound I-216] |
| 48 | O=C(Nc1c2c(nn1CCC1CC1)C[C@]1(CCc3cc(OCC(F)(F)F)ccc31)NC2=O)c1ccoc1 [Compound I-218] |
| 35 | O=C(Nc1c2c(nn1CCC1CC1)C[C@]1(CCc3cc(OCC(F)(F)F)ccc31)NC2=O)c1ccco1 [Compound I-220] |
| 60 | Cc1nnsc1C(=O)Nc1c2c(nn1CCC1CC1)C[C@]1(CCc3cc(OCC(F)(F)F)ccc31)NC2=O [Compound I-221] |
| 40 | O=C(Nc1c2c(nn1CCC1CC1)C[C@]1(CCc3cc(OCC(F)(F)F)ccc31)NC2=O)c1ncco1 [Compound I-225] |
| 28 | O=C(Nc1c2c(nn1CCC1CC1)C[C@]1(CCc3cc(OCC(F)(F)F)ccc31)NC2=O)c1cncs1 [Compound I-228] |
| 47.5 | O=C(Nc1c2c(nn1CCC1CC1)C[C@]1(CCc3cc(OCC(F)(F)F)ccc31)NC2=O)c1cocn1 [Compound I-231] |
